This note sets out measurements from paper PMC8385015, “Tumour-on-chip microfluidic platform for assessment of drug pharmacokinetics and treatment response” (Communications Biology, 2021).

Common to all, as to format: cell-based
One experiment deals with Ki67. The experiment in a line: Ki67 immunofluorescence in SW620 spheroids, microfluidic chip. The text has this: (§1) SN38 is a TOP1 inhibitor that that prevents relegation of the DNA strand by binding to TOP1–DNA complex and causes DNA double strand breaks (DSBs). Those DNA DSB lesions trigger activation of the ATM kinase for effective repair. Inhibition of ATM and consequent accumulation of unrepaired breaks leading to increased cell death provides the rationale for developing this combination for cancer treatment. […] Here, we tested whether different schedules lead to different activation of pharmacodynamic markers that are associated with DNA DSB damage, apoptosis and cell proliferation. The γ-H2AX associated foci accumulate in cells exposed to DBS inducing agents[18],[19]. These foci can be detected by immunostaining to determine their, size and morphology. However, spheroid imaging using a 20x objective on a CV7000 confocal microscope cannot accurately explore foci morphology, so we introduced customised ImageJ macros (described in “Methods” section, Supplementary Fig. 2 and Supplementary Method 1) to quantitate positive cells within a spheroid. The same method was applied to quantitate CC3-positive (apoptotic) cells, while normalisation by spheroid area was not required for Ki67, as this biomarker is present in all proliferating cells. […]
Total Hoechst area represents a parameter used for normalization within biomarker quantitation. […]

The test system of experiment [1] is SW620 spheroids. The experiment in a line: SW620 spheroid size/volume, microfluidic Ibidi chip mimicking mouse PK profile. The protocol: Spheroid images were taken for each experimental endpoint (day 7) using a Leica DMI4000B microscope (Leica Microsystems) with brightfield (BF), phase-contrast and fluorescence filters. Each flow line used two chips, one for viability assays and second for immunofluorescence. Both chips were imaged in BF prior spheroid recovery. Hardware embedded microscope scale has been translated in Fiji ImageJ to evaluate spheroid area/volume. The average size for SW620 spheroids was evaluated by measuring spheroid projection area in bright-field images, based on a macro script designed in an open-source imaging software (Fiji ImageJ) (Supplementary Method 1). Spheroid volume was evaluated following radius deduction from the measured area.

Experiment [2] relates to SW620 spheroids. As to the kind of experiment: SW620 spheroid viability (CellTiterGlo), static plate format. Conditions: 6 days. The protocol:
In microfluidic Ibidi chip, tumour spheroids were exposed to eight different concentrations in a gradient fashion mimicking the in vivo pharmacokinetic profile and treatment schedule for both drugs. c Spheroids were imaged in situ (plate/chip) at the end of the treatment and their volumes calculated from average radius deducted from min/max Feret. d Spheroid viability was measured at the end of the treatment by CellTiterGlo assay (d). N = 6 per condition from two independent experiments. Box-plots show median (centre line); box limits are 25th to 75th percentile; whiskers represent min and max values. Statistical analysis was performed using 1-way ANOVA.
From the same experimental setup, we explored SW620 spheroid viability at 6 days for static and microfluidic setup (Fig. 2d).
Compounds were dispensed in each well using an automated HP D300 digital dispenser (Tecan, UK).
Spheroid viability assessment used a metabolic method (CellTiterGlo 3D, G9681, Promega) by measuring luminescence units expressed by individually recovered spheroids. […] CellTiterGlo vial was allowed to thaw (1 h, room temperature) and 25 µL reagent were added to each spheroid well. […] Luminescence levels were measured using a SpectraMax i3X (Molecular Devices, USA).
A general note: Cellular ATP, detected with luciferase, serves as a proxy for viable cell number.

For the next experiment, the system named is γH2AX. As to the kind of experiment: γH2AX immunofluorescence in SW620 spheroids, microfluidic chip. Conditions: SN38 monotherapy, day 7.
Text: as §1
Supplementary Figure 2. Fluorescence image processing, per biomarker, using Fiji ImageJ custom-made macros […]

“And” between values parts separate entries of the source, which are not always exact repeats. Equal values may be shown once.

`CCc1c2c(nc3ccc(O)cc13)-c1cc3c(c(=O)n1C2)COC(=O)[C@]3(O)CC` [SN38]: the Ki67 positive area in the experiment on Ki67 (Mono SN38, day 7, single spheroids) is 3.88E+07 and 4.54E+07 and 3.33E+07 and 4.06E+07 and 4.69E+07. In addition, the “decrease in proliferation (Ki67) compared to control” value with Ki67 (SN38 monotherapy, day 7) is “about 20%”. Also, in the experiment on SW620 spheroids [1] (Microfluidic Ibidi chip, PK-profile exposure, 6 days, single spheroids (Fig 2c raw data)), the “spheroid size at day 6, fold increase in size over day 1” value is 2.9097 and 2.688 and 2.723 and 2.5658. Further, the “spheroid volume as percentage of untreated control” value in the experiment on SW620 spheroids [1] (microfluidic chip, SN38 mono (1d), day 7) is 55%. Moreover, in the experiment with SW620 spheroids [2] (Static plate format, CellTiterGlo, replicates (Fig 2d raw data), unit not given), the spheroid viability was 36.02 and 31.7 and 39.52. In the experiment on SW620 spheroids [2] (static, continuous exposure), the “reduction in spheroid viability” value is listed as ~ 60%. Besides, in the experiment with γH2AX, the “change in γH2AX compared to the control group” value was “did not observe a significant change”.
